# Test results from US20180327807A1, “ASSAY FOR DETERMINING ANTIBIOTICS IN WASTE” (DSM Sinochem Pharmaceuticals Netherlands B.V., priority 2015, published 2018).
# Test system: microorganism in the agar layer
# Experiment: Delvotest SP NT microbial growth inhibition assay, colour of the agar indicator, with or without added milk
# Format: cell-based
# Settings: 2 ppb test solution, with added milk or added water, 60 to 210 min
# Procedure: From all samples solutions 100 μl is brought in the Delvotest SP NT Ampoule with an Eppendorf pipet of 100 μl. With the point of the pipet the tube cover top of the ampoule will be penetrated and the 100 μl is added to the ampoule. Put the ampoules for 2.5 h in a water bath of 65° C. Seal the ampoule with tape. After 2.5 h the ampoules are removed from the water bath. Check if the blanks are yellow, if not prolong the time in the water bath with 30 min. Yellow is negative and purple is positive. Positive means there is antimicrobial activity present in the sample which is higher than 2 ppb (calculated as penicillin G K). Two samples, a blank (water) and 2 ppb penicillin G K test solution were analysed using commercially available (DSM Food Specialties B.V., Delft, The Netherlands) Delvotest SP NT analogous to the supplier's manual. Two ampoules were filled with blank sample. To one milk (regular low-fat milk from a Dutch supermarket was used in the present example) was added according to the instruction as outlined in Example 1 and to the other the same amount of water was added. […] The ampoules filled with sample were incubated at 64° C.+/−2° C.) and the colour of the agar in the ampoules was visually recorded at several points in time. […]
smiles,measurement,value
"CC1(C)S[C@@H]2[C@H](NC(=O)Cc3ccccc3)C(=O)N2[C@H]1C(=O)[O-].[K+] [Penicillin G K test solution, penicillin G K]",colour change of the indicator (inhibiting effect on growth of the microorganism),do not show any colour change
